According to patent publication US9504248B2, “Antimicrobial composition” (Rohm and Haas Company, priority 2011, dated 2016):
In brackets after ≈: the same amount, converted by molar mass.

Assays:
Type in all cases: cell-based
[1] = system: Escherichia coli (E. coli - ATCC #10536); assay: High resolution MBC synergy assay in phosphate buffer containing 35% dipropylene glycol, 15 seconds (Example 2); settings: 15 s, complete kill; phosphate buffer with 35% DPG
Method: In this Example, a wide range of combinations of chemicals was tested by conducting high resolution MBC assays of monosubstituted phenols in the presence of various concentrations of terpineol. […] High resolution MBCs were determined by adding varying amounts of microbicide to one column of a microtiter plate and doing subsequent […] dilutions using an automated liquid handling system to obtain a series of endpoints ranging from 0.002% to 1% of the test compound. The MBC plate was inoculated one column at a time with the test microorganism. An aliquot of the inoculated well was transferred at 15 seconds to a plate containing a neutralizing agent (D/E Neutralizing Broth), mixed and held for 5 minutes before being transferred to a growth plate containing trypticase soy broth (TSB). The TSB plate was incubated at 37° C. and read for the presence/absence of growth at 24 hours.
This microorganism is representative of natural contaminants in many consumer and industrial applications.

[2] = system: Escherichia coli (E. coli - ATCC #10536); assay: Automated assessment of efficacy in surfactant base, 15 seconds exposure, OD450/OD590 readout (Example 4); settings: for MBC: Escherichia coli, ATCC10536, 15 s, in 2.85% sodium cocoyl glycinate + 1.85% sodium lauroamphoacetate solution at pH 10, 15 s; for antimicrobial action in combination with terpineol in the presence of surfactant (in words): cocoyl glycinate and lauroamphoacetate
Method: In these examples, the efficacy of combinations of monosubstituted phenols and terpineol were tested in a surfactant cleansing formulation comprising 2.85% sodium cocoyl glycinate and 1.85% sodium lauroamphoacetate. This corresponds to a 50% in use dilution with water of a typical neat formulation containing 5.7% cocoyl glycinate and 3.7% % sodium lauroamphoacetate during hand washing. Solutions were prepared such that the concentrations of the surfactant components and test actives were 1.1 times the final desired concentration in order to allow for dilution with the bacterial inoculum in the test. The solutions were manually adjusted to pH 10.0 by dropwise addition of sodium hydroxide solution, as measured with a pH meter at ambient temperature. Solutions of the monosubstituted phenols and/or terpineols were prepared at a maximum of 24 hours before testing. The same terpineol was used as in Example 1.
The efficacy of the combinations of the present invention was determined against the same bacterium as in Example 1, Escherichia coli (E. coli—ATCC #10536), at a concentration of approximately 1×10^8 bacteria per mL.
Tests were conducted using standard microtiter plate assays using an automated liquid handling system. 270 μl of the surfactant test solution was pipetted into each well of the microtitre plate (Nunc F Gamma Irradiated 96F untreated microtitre plates of clear polystyrene) and 30 μl of the bacterial suspension was then added. After exactly 15 seconds of bacterial exposure, a 30 μl volume of bacterial cells was withdrawn and transferred to 270 μl of D/E quench solution. After 5 minutes in the D/E quench, the optical density (OD) was measured for each plate in turn at two specific wavelengths (450 nm and 590 nm). These provide a dual check of antimicrobial activity, as the OD450 reading is specific for the yellow colour of D/E quench when bacterial growth is observed, whereas OD590 is specific for the initial purple colour of the D/E quench which is retained if no bacterial growth is observed. After the time zero OD measurements, plates were then incubated at 37° C. overnight (16 hours) before repeating the OD measurements. Delta OD values were calculated by subtracting […] at time=16 hours. Bacterial growth is observed as an increase in OD450 and a decrease in OD590. To identify antibacterially efficacious systems (those preventing appreciable bacterial growth after incubation), the following threshold changes in OD readings have been adopted: if (1). OD450 increases by less than 0.2 absorbance unit (AU) on incubation and (2). OD590 decreases by less than 0.35 AU on incubation. Conversely, where OD450 increases by more than […] after incubation, corresponding to a colour shift from purple to yellow, the test system allows bacterial growth and is not deemed efficacious. Four replicate measurements in the same plate have been made for each test system. The number of replicate wells showing either bacterial growth or no growth is also readily assessed by eye by following the colour change. Thymol and terpineol were tested both alone and in combination for comparison purposes.
In some selected cases, the combinations were also tested at the weight ratio 1:1.
The surfactants used are not themselves antimicrobially active against E. coli at the concentrations employed as shown by the results of Ex. (4:1) in Table 24. Thus, any antimicrobial efficacy can be ascribed to the monosubstituted phenols and/or terpineol. Table 25 presents MBC-values determined similarly as described for Example 1.

[3] = system: Escherichia coli (10536 strain); assay: 15 second contact suspension kill assay (Example 1 protocol, also Example 3); settings: Escherichia coli, 15 s; component alone; lowest tested concentration giving zero bacterial survival after 15 s; upper boundary; read-out: Minimum biocidal concentration (MBC)
Description: The efficacies of antimicrobial agents can be usefully compared by determining the Minimum Biocidal Concentration (MBC). The MBC is defined as the lowest absolute concentration of the particular active that provides complete kill (zero bacterial growth). The differing behaviours of inhibitory antimicrobtals in Isolation and mixtures have been widely explored using the concept of the Fractional Concentration and Fractional Inhibitory Concentration (FIC). See for instance J R W Lambert and R Lambert, J. Appl. Microblol 95, 734 (2003); T. Jadavji. C G Prober and R Cheung. Antimicrobial Agents and Chemotherapy 26, 91 (1984), and WO 2004/006876. These parameters can be defined as follows:
[formula] [formula] By analogy the Fractional Biocidal Concentration (FBC) is given by:
Antimicrobial efficacy is tested against a representative pathogenic bacterial organism, Gram negative Escherichia coli. Concentrations of actives are expressed in terms of the percentage weight/volume (% w/v) throughout Example 1.
An overnight culture of Escherichia coli (10536 strain) was prepared in 50 ml total volume of TSB broth, grown for ca. 18 hrs at 37° C. and shaken at 150 rpm. 1 ml of this overnight E. coli culture was transferred to 50 ml of fresh TSB broth and incubated at 37° C. at 150 rpm for ca. 4 hours. This culture was separated into equal volumes and centrifuged at 4000 rpm for 15 minutes, washed with sterile saline (0.85% NaCl), centrifuged once more and re-suspended in saline to give a final concentration of 0.8 OD620 equivalent to about 10^8 cells per milliliter for this particular organism. Here, OD620 indicates the absorbance of a sample in a cuvette of 1.0 cm path length at a wavelength of 620 nm. This bacterial stock was used for assaying against antimicrobial actives (in triplicate).
The following assay describes the testing of 8 materials using 6 dilutions across half of a 96-well micro titre plate (MTP). Using this approach it is possible to assay 16 actives (without replicates) with one full dilution plate, replicating this set up in two halves of the plate columns, 1-6 and 7-12.
1M solutions of the test actives were prepared in dimethylsulphoxide (DMSO).
Aliquots (270 μl) of the materials at 1.11 times the final concentration were dispensed into the wells of the MTP along one column (A1-H1). This MTP was labelled as the “Screening plate”.
In another MTP, labelled as the “Dilution plate”, 270 μl of D/E neutralising solution from DIFCO Composition was added to column 1. The composition of the neutralising solution was as follows: pancreatic digest of casein, 5.0 g/L; Yeast Extract, 2.5 g/L; Dextrose, 10 g/L, sodium thioglycollate, 1.0 g/L, sodium thiosulphate, 6.0 g/L; sodium bisulphite, 2.5 g/L; Polysorbate 80, 5.0 g/L; lecithin 7.0 g/L; bromocresol purple, 0.02 g/L with a pH in the range 7.6±0.2.
270 μl of tryptone diluent solution was added to all the remaining wells of the Dilution MTP (columns 2-6).
Bacterial stock (30 μl) was then added to the prepared 270 μl of the solution of actives in the Screening Plate and mixed, using a multichannel pipette with 8 tips to aspirate and dispense the same volume of bacterial stock in parallel to 8 wells in rows A-H. After a contact time of 15 seconds, the mixtures were quenched by transferring 30 μl volumes of the mixtures into the 270 μl D/E neutralising solution in the prepared dilution plate, using aspiration to mix. After exactly 5 minutes in the DIE neutralising solution, 30 μl volumes were transferred from column 1 to column 2 of the Dilution MTP and mixed, before transferring further 30 μl volumes from column 2 into column 3. This process was repeated serially diluting the bacteria across the plate to column 6.
30 μl volumes from each well in the Dilution MTP were transferred onto pre-labelled segment of Tryptone Soya Agar (TSA) plates starting from the lowest bacterial concentration (highest dilution, column 6) to the highest bacterial concentration (column 1).

SMILES | MBC of first component alone (MBCA; Ca at Cb = 0) [1] | MBC [2] | antimicrobial action in combination with terpineol in the presence of surfactant (in words) [2] | MBC [3] | MBC of second component (terpineol) alone (MBCB; Cb at Ca = 0) [1]
Oc1ccccc1Cc1ccccc1 [2-benzylphenol] | 0.6 weight % | > 2000 µg/mL | enhanced antimicrobial action | 500 µg/mL (≈ 2.71 mM) | –
Oc1ccccc1C1CCCC1 [2-cyclopentylphenol] | 0.8 weight % | > 2000 µg/mL | enhanced antimicrobial action | 1000 µg/mL (≈ 6.16 mM) | –
CCCc1ccccc1O [2-n-propylphenol] | 0.3 weight % | – | enhanced antimicrobial action | – | –
CCC(C)c1ccccc1O (centres unmarked) [2-sec-butylphenol] | 0.2 weight % | > 2000 µg/mL | enhanced antimicrobial action | 500 µg/mL (≈ 3.33 mM) | –
CC(C)(C)c1ccccc1O [2-tert-butylphenol] | 0.2 weight % | 1750 µg/mL | enhanced antimicrobial action | 500 µg/mL (≈ 3.33 mM) | –
CCCc1cccc(O)c1 [3-n-propylphenol] | 0.05 weight % | 1750 µg/mL | enhanced antimicrobial action | – | –
Oc1ccc(Cc2ccccc2)cc1 [4-benzylphenol] | 0.5 weight % | > 2000 µg/mL | enhanced antimicrobial action | 500 µg/mL (≈ 2.71 mM) | –
Oc1ccc(C2CCCC2)cc1 [4-cyclopentylphenol] | 0.6 weight % | > 2000 µg/mL | – | 800 µg/mL (≈ 4.93 mM) | –
CCCc1ccc(O)cc1 [4-n-propylphenol] | 0.3 weight % | – | enhanced antimicrobial action | 750 µg/mL (≈ 5.51 mM) | –
CCCCCc1ccc(O)cc1 [4-pentylphenol] | 1.0 weight % | > 2000 µg/mL | – | 250 µg/mL (≈ 1.52 mM) | –
CC1=CCC(C(C)(C)O)CC1 (stereo not drawn) [alpha-terpineol] | – | – | – | – | 0.6 weight %
